{"source": "patent US20240270762A1", "about": "“PENICILLIN-BINDING PROTEIN INHIBITORS” (priority 2021, published 2024)", "target": "T1, PBP3 from Acinetobacter baumannii (ATCC 19606) (Acinetobacter baumannii, UniProt A0ABX6CK25)", "T1 sequence (A0ABX6CK25 64-610)": "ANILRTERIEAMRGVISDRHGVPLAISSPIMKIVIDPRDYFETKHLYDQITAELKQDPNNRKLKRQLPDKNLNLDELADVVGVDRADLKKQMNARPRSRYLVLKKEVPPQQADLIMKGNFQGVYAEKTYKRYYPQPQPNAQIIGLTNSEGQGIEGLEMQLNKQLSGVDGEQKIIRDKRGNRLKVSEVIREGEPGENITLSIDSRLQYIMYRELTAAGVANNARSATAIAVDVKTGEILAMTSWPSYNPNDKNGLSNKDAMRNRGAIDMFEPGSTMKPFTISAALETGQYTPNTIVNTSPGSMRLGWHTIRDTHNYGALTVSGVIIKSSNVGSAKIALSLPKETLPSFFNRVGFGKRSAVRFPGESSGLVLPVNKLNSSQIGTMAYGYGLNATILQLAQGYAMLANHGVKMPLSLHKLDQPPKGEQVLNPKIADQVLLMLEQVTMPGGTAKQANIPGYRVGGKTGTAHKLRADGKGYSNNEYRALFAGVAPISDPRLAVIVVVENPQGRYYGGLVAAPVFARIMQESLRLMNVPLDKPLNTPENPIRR", "assay": "Bocillin-FL fluorescence polarization competition binding, A. baumannii PBP3", "conditions": "fluorescence polarization competition binding assay using Bocillin-FL; read-out: A. baumannii PBP3 Potency", "in_short": "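Purified PBP was preincubated with inhibitor (E. coli PBP3 1.5 μM, 30 min; P. aeruginosa PBP3 0.75 μM, A. baumannii PBP3 0.2 μM and PBP1a 1 μM, 15 min), then Bocillin-FL (0.1 μM; 0.05 μM for PBP1a) added and FP read up to 60 min. EC50 = 50% loss of bound probe.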", "data": [{"smiles": "O=C(NCCS(=O)(=O)N1CCN(C(=O)NC(C(=O)N[C@H]2Cc3ccc(F)c(C(=O)O)c3OB2O)c2cc(F)c(O)c(O)c2Cl)C1=O)Nc1cccc(O)c1", "note": "(stereo partly drawn) [Example 266, (3R)-3-(2-(2-chloro-5-fluoro-3,4-dihydroxyphenyl)-2-(3-((2-(3-(3-hydroxyphenyl)ureido)ethyl)sulfonyl)-2-oxoimidazolidine-1-carboxamido)acetamido)-7-fluoro-2-hydroxy-3,4-dihydro-2H-benzo[e][1,2]oxaborinine-8-carboxylic acid]", "values": [{"measurement": "IC50", "result": "< 10", "unit": "µM"}]}, {"smiles": "O=C(NCCS(=O)(=O)N1CCN(C(=O)N[C@@H](C(=O)N[C@H]2Cc3ccc(F)c(C(=O)O)c3OB2O)c2cc(F)c(O)c(O)c2Cl)C1=O)Nc1cccnc1", "note": "[Example 267, (R)-3-((R)-2-(2-chloro-5-fluoro-3,4-dihydroxyphenyl)-2-(2-oxo-3-((2-(3-(pyridin-3-yl)ureido)ethyl)sulfonyl)imidazolidine-1-carboxamido)acetamido)-7-fluoro-2-hydroxy-3,4-dihydro-2H-benzo[e][1,2]oxaborinine-8-carboxylic acid]", "values": [{"measurement": "IC50", "result": "< 10", "unit": "µM"}]}, {"smiles": "O=C(NCCCS(=O)(=O)N1CCN(C(=O)NC(C(=O)N[C@H]2Cc3ccc(F)c(C(=O)O)c3OB2O)c2cc(F)c(O)c(O)c2Cl)C1=O)c1ccccc1", "note": "(stereo partly drawn) [Example 268, (3R)-3-(2-(3-((3-benzamidopropyl)sulfonyl)-2-oxoimidazolidine-1-carboxamido)-2-(2-chloro-5-fluoro-3,4-dihydroxyphenyl)acetamido)-7-fluoro-2-hydroxy-3,4-dihydro-2H-benzo[e][1,2]oxaborinine-8-carboxylic acid]", "values": [{"measurement": "IC50", "result": "< 10", "unit": "µM"}]}, {"smiles": "O=C(NCCCS(=O)(=O)N1CCN(C(=O)NC(C(=O)N[C@H]2Cc3ccc(F)c(C(=O)O)c3OB2O)c2cc(F)c(O)c(O)c2Cl)C1=O)c1ccc(O)cc1", "note": "(stereo partly drawn) [Example 269, (3R)-3-(2-(2-chloro-5-fluoro-3,4-dihydroxyphenyl)-2-(3-((3-(4-hydroxybenzamido)propyl)sulfonyl)-2-oxoimidazolidine-1-carboxamido)acetamido)-7-fluoro-2-hydroxy-3,4-dihydro-2H-benzo[e][1,2]oxaborinine-8-carboxylic acid]", "values": [{"measurement": "IC50", "result": "< 10", "unit": "µM"}]}, {"smiles": "O=C(NCCCS(=O)(=O)N1CCN(C(=O)N[C@H](C(=O)N[C@H]2Cc3ccc(F)c(C(=O)O)c3OB2O)c2cc(F)c(O)c(O)c2Cl)C1=O)c1cccc(O)c1", "note": "[Example 270, (R)-3-((S)-2-(2-chloro-5-fluoro-3,4-dihydroxyphenyl)-2-(3-((3-(3-hydroxybenzamido)propyl)sulfonyl)-2-oxoimidazolidine-1-carboxamido)acetamido)-7-fluoro-2-hydroxy-3,4-dihydro-2H-benzo[e][1,2]oxaborinine-8-carboxylic acid]", "values": [{"measurement": "IC50", "result": "< 10", "unit": "µM"}]}, {"smiles": "O=C(NCCCS(=O)(=O)N1CCN(C(=O)N[C@@H](C(=O)N[C@H]2Cc3ccc(F)c(C(=O)O)c3OB2O)c2cc(F)c(O)c(O)c2Cl)C1=O)c1cccc(O)c1", "note": "[Example 271, (R)-3-((R)-2-(2-chloro-5-fluoro-3,4-dihydroxyphenyl)-2-(3-((3-(3-hydroxybenzamido)propyl)sulfonyl)-2-oxoimidazolidine-1-carboxamido)acetamido)-7-fluoro-2-hydroxy-3,4-dihydro-2H-benzo[e][1,2]oxaborinine-8-carboxylic acid]", "values": [{"measurement": "IC50", "result": "< 10", "unit": "µM"}]}, {"smiles": "O=C(NCCCS(=O)(=O)N1CCN(C(=O)NC(C(=O)N[C@H]2Cc3ccc(F)c(C(=O)O)c3OB2O)c2cc(F)c(O)c(O)c2Cl)C1=O)c1ccncc1", "note": "(stereo partly drawn) [Example 272, (3R)-3-(2-(2-chloro-5-fluoro-3,4-dihydroxyphenyl)-2-(3-((3-(isonicotinamido)propyl)sulfonyl)-2-oxoimidazolidine-1-carboxamido)acetamido)-7-fluoro-2-hydroxy-3,4-dihydro-2H-benzo[e][1,2]oxaborinine-8-carboxylic acid]", "values": [{"measurement": "IC50", "result": "< 10", "unit": "µM"}]}, {"smiles": "O=C(NCCCS(=O)(=O)N1CCN(C(=O)NC(C(=O)N[C@H]2Cc3ccc(F)c(C(=O)O)c3OB2O)c2cc(F)c(O)c(O)c2Cl)C1=O)c1cccnc1", "note": "(stereo partly drawn) [Example 273, (3R)-3-(2-(2-chloro-5-fluoro-3,4-dihydroxyphenyl)-2-(3-((3-(nicotinamido)propyl)sulfonyl)-2-oxoimidazolidine-1-carboxamido)acetamido)-7-fluoro-2-hydroxy-3,4-dihydro-2H-benzo[e][1,2]oxaborinine-8-carboxylic acid]", "values": [{"measurement": "IC50", "result": "< 10", "unit": "µM"}]}, {"smiles": "O=C(NCCCS(=O)(=O)N1CCN(C(=O)NC(C(=O)N[C@H]2Cc3ccc(F)c(C(=O)O)c3OB2O)c2cc(F)c(O)c(O)c2Cl)C1=O)c1nccs1", "note": "(stereo partly drawn) [Example 274, (3R)-3-(2-(2-chloro-5-fluoro-3,4-dihydroxyphenyl)-2-(2-oxo-3-((3-(thiazole-2-carboxamido)propyl)sulfonyl)imidazolidine-1-carboxamido)acetamido)-7-fluoro-2-hydroxy-3,4-dihydro-2H-benzo[e][1,2]oxaborinine-8-carboxylic acid]", "values": [{"measurement": "IC50", "result": "< 10", "unit": "µM"}]}, {"smiles": "O=C(O)c1c(F)ccc2c1OB(O)[C@@H](NC(=O)C(NC(=O)N1CCN(S(=O)(=O)CCCNC(=O)[C@@H]3CCCN3)C1=O)c1cc(F)c(O)c(O)c1Cl)C2", "note": "(stereo partly drawn) [Example 275, (3R)-3-(2-(2-chloro-5-fluoro-3,4-dihydroxyphenyl)-2-(2-oxo-3-((3-((S)-pyrrolidine-2-carboxamido)propyl)sulfonyl)imidazolidine-1-carboxamido)acetamido)-7-fluoro-2-hydroxy-3,4-dihydro-2H-benzo[e][1,2]oxaborinine-8-carboxylic acid]", "values": [{"measurement": "IC50", "result": "< 10", "unit": "µM"}]}, {"smiles": "O=C(NCCCS(=O)(=O)N1CCN(C(=O)NC(C(=O)N[C@H]2Cc3ccc(F)c(C(=O)O)c3OB2O)c2cc(F)c(O)c(O)c2Cl)C1=O)Nc1ccc(O)cc1", "note": "(stereo partly drawn) [Example 276, (3R)-3-(2-(2-chloro-5-fluoro-3,4-dihydroxyphenyl)-2-(3-((3-(3-(4-hydroxyphenyl)ureido)propyl)sulfonyl)-2-oxoimidazolidine-1-carboxamido)acetamido)-7-fluoro-2-hydroxy-3,4-dihydro-2H-benzo[e][1,2]oxaborinine-8-carboxylic acid]", "values": [{"measurement": "IC50", "result": "< 10", "unit": "µM"}]}]}
